Legend:
[1] = In vivo safety: plasma ALP, AST, ALT, BUN; set-up: species or system mouse; conditions: 2 weeks, all doses tested
Protocol: We then initiated dose response and safety studies in mice to determine testing dosages and safety of DHCA and Mal-gluc. C57BL/6 mice were treated with either DHCA (doses ranging from 50 µg to 50 mg/kg-BW/day) or Mal-gluc (doses ranging from 50 ng to 5 mg/kg-BW/day) for 2 weeks to simulate long-term administration. Mice treated with DHCA were challenged with intraperitoneal (i.p.) injection of 0.4 mg/kg-BW LPS and plasma levels of IL-6 were measured 6 h post injection. […] Following common discovery-stage practices, we measured the plasma levels of alkaline phosphatase (ALP), aspartate aminotransferase (AST), and alanine aminotransferase (ALT) for liver function and blood urea nitrogen (BUN) for renal function.
Male C57BL/6 J mice (8-week-old) were placed on a polyphenol-free AIN-93M diet and treated with various doses of DHCA (vehicle, 50 µg, 500 µg, 5 mg, and 50 mg/kg-BW/day), delivered through their drinking water for two weeks. Animals were then sacrificed and plasma was collected for routine biochemistry panel analysis including ALP, ALT, and AST for liver function and blood urea nitrogen (BUN) content for kidney function. A separate group of mice was similarly treated and challenged with an i.p. injection of 0.4 mg/kg body weight LPS and plasma was collected 6 h post injection for IL-6 analysis. […]

[2] = tested on: IL-6; assay: LPS-induced IL-6 production in PBMCs (screening, dose response); format: cell-based, mouse
Text: BDPP contains a variety of polyphenols. Orally consumed polyphenols are typically bioavailable in various organs and tissues as metabolites (phase II polyphenol conjugates and phenolic acids) following xenobiotic metabolism and gastrointestinal microbiome fermentation. It is possible that some metabolites may counteract the positive effect of the others. Therefore, if supplied as BDPP, the overall benefits might be reduced due to potential ‘cancellation’ effects. By identifying individual metabolites that selectively target key pathological mechanisms (e.g., Rac1 and IL-6) we can greatly improve the efficacy. We and others recently identified 21 BDPP-derived phenolic metabolites that accumulate in blood and/or in the CNS (14 polyphenolic metabolites and 7 phenolic acids, Supplementary Table 1)[25], [28], [33], among which 14 are currently accessible, [34]. We initiated a high-throughput screen of these metabolites for their ability to modulate IL-6 and Rac1. Peripheral blood mononuclear cells (PBMCs) isolated from C57BL/6 mice were pretreated with plasma bioavailable metabolites (Supplementary Table 1) for 16 h followed by stimulation with lipopolysaccharide (LPS) for 16 h. […] In parallel studies, we screened 9 brain bioavailable metabolites using E18 MSN-enriched primary culture.
Whole blood from mice was mixed with complete RPMI media and laid over the Ficoll-Paque Plus (GE Healthcare, Sweden), centrifuged at 2200 r.p.m. for 15 min. The buffy coat containing PBMCs were isolated, washed once with BEP (0.5% BSA, 2 mM EDTA in PBS) and plated out in a 24-well plate at 5 × 10^5/well in culture medium RPMI-1640 supplemented with 20% horse serum, 10% FBS, 2 mM L-glutamine, 25 mM Hepes and 100 U/ml penicillin/streptomycin. PBMCs were treated with various phenolic acids for 16 h and challenged with 7.5 µg/ml LPS. Supernatant was collected by centrifugation following 16 h of LPS stimulation and the levels of IL-6 were measured using the Mouse IL-6 Quantikine ELISA Kit from R & D System.

[3] = Plasma protein binding, mouse plasma; format: in vitro ADME
Protocol: Compound stability in mouse and human plasma and in mouse brain homogenate were conducted, [45]. Specifically, Mal-gluc or DHCA was incubated in duplicate with plasma at 37 °C and samples were taken at various time points and mixed with three volumes of ice-cold Stop Solution (methanol containing propranolol, diclofenac, or other internal standard). Samples were centrifuged to remove precipitated protein, and the supernatants were analyzed by LC/MS/MS to quantitate for remaining test compound. Data are converted to percentage remaining by dividing by the time zero concentration value. Data are fit to a first-order decay model to determine half-life. Plasma protein binding were conducted using both mouse and human plasma.

[4] = tested on: Rac1 promoter histone H3 acetylation / H3K27 trimethylation; assay: Quantitative ChIP along the Rac1 promoter in MSN-enriched primary cultures; format: cell-based, mouse
Text: Stress-induced reduction of Rac1 expression is associated with a repressed chromatin state surrounding the promoter region of Rac1 in the NAc[11]. Since Mal-gluc can cross the BBB, we hypothesized that Mal-gluc may promote Rac1 expression, in part, by modulating chromatin acetylation. We first assessed the effect of Mal-gluc on HDACs that play key roles in chromatin deacetylation. […] Using site directed quantitative chromatin immunoprecipitation (qCHIP), we examined the permissive histone H3 acetylation (AcH3) in Mal-gluc treated MSN-enriched primary cultures.
Site-directed qChIP was performed for pan-acH3 and H3K27me3 as described previously with modification. Neurons were washed once with PBS and crosslinked in 1% formaldehyde for 15 min, quenched by glycine at a final concentration of 125 mM. Neurons were then rinsed with cold PBS containing protease inhibitor cocktail (Sigma) and scraped off the plate. Cells were resuspended and sonicated with a Bioruptor (15 cycles, 30 sec on/off), which produces chromatin fragments ~350 bp in length. […] Levels of specific histone modifications along the Rac1 promoter were determined by measuring the amount of acetylated or methylated histone-associated DNA using quantitative real-time PCR as previously described.

SMILES	plasma ALP, AST, ALT (liver function) and BUN (renal function) [1]	primary screening, LPS-induced IL-6 production ([2]; 14 plasma bioavailable metabolites screened)	IC50 ([2]; Mus musculus, PBMC, PBMCs pretreated 16 h, then LPS 16 h, read-out: calculated IC50, reducing LPS-induced IL-6 production)	EC50 ([2]; Mus musculus, PBMC, dose response in PBMCs following LPS stimulation, read-out: EC50 (IL-6 response), Fig. 2b)	Plasma protein binding, Mean fraction unbound (mouse plasma) [3]	repressive trimethylation of the Rac1 promoter (H3K27) [4]	permissive histone H3 acetylation (AcH3) of Rac1 ([4]; compared to vehicle, across the region surveyed)
O=C(O)CCc1ccc(O)c(O)c1 [DHCA, 3(3,4-dihydroxy-phenyl) propionic acid]	neither phytochemical induced significant changes in any of the indexes	most effective in reducing LPS-induced IL-6 production	17.7 µM	17.7 µM			
COc1cc(-c2[o+]c3cc(O)cc(O)c3cc2O[C@@H]2O[C@H](CO)[C@@H](O)[C@H](O)[C@H]2O)cc(OC)c1O [Mal-gluc]	neither phytochemical induced significant changes in any of the indexes				55.70%	no effect on the repressive trimethylation	significantly increased permissive acetylation

Source: publication PMC5797143, “Epigenetic modulation of inflammation and synaptic plasticity promotes resilience against stress in mice” (Nature Communications, 2018)
